# Measured values published in patent EP3755703B1, “N-(PHENYL)-2-(PHENYL)PYRIMIDINE-4-CARBOXAMIDE DERIVATIVES AND RELATED COMPOUNDS AS HPK1 INHIBITORS FOR TREATING CANCER” (Incyte Corporation, priority 2018, dated 2019).
# Target: T1, HPK1 (Homo sapiens, UniProt Q92918)
# T1 construct: purchased SignalChem M23-11G
# T1 sequence (Q92918 1-346 limits assumed): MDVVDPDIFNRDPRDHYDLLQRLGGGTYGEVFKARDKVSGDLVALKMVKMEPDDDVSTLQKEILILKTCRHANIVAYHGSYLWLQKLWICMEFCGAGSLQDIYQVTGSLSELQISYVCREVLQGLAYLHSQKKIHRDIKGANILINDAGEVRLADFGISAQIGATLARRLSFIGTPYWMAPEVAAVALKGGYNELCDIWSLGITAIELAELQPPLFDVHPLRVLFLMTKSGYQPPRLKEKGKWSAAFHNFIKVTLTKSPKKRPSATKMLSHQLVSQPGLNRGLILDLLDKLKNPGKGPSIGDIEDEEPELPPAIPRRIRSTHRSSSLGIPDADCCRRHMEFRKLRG
# Test: HPK1 Kinase Binding Assay
# Details: LanthaScreen tracer 222, one hour incubation at 25 °C
row,SMILES,Ki [nM]
1,"COC[C@H]1CCCN1c1ccc(F)cc1NC(=O)c1ccnc(-c2c(F)cccc2OC)n1 [Example 5, (R)-N-(5-Fluoro-2-(2-(methoxymethyl)pyrrolidin-1-yl)phenyl)-2-(2-fluoro-6-methoxyphenyl)pyrimidine-4-carboxamide]",100 to 500
2,"COc1cccc(F)c1-c1nccc(C(=O)Nc2ccc(-c3c(C)nn(C)c3C)cc2N2C[C@@H]3C[C@H]2CN3)n1 [Example 27, N-(2-((1S,4S)-2,5-Diazabicyclo[2.2.1]heptan-2-yl)-4-(1,3,5-trimethyl-1H-pyrazol-4-yl)phenyl)-2-(2-fluoro-6-methoxyphenyl)pyrimidine-4-carboxamide]",< 100
3,"CCN1C[C@H]2C[C@@H]1CN2c1ccc(F)cc1NC(=O)c1ccnc(-c2c(F)cccc2OC)n1 [Example 32, N-(2-((1R,4R)-5-Ethyl-2,5-diazabicyclo[2.2.1]heptan-2-yl)-5-fluorophenyl)-2-(2-fluoro-6-methoxyphenyl)pyrimidine-4-carboxamide]",< 100
4,"COc1cccc(F)c1-c1nccc(C(=O)Nc2cc(F)c(CNC3CCC3)cc2N2C[C@@H]3C[C@H]2CN3)n1 [Example 31, N-(2-((1S,4S)-2,5-Diazabicyclo[2.2.1]heptan-2-yl)-4-((cyclobutylamino)methyl)-5-fluorophenyl)-2-(2-fluoro-6-methoxyphenyl)pyrimidine-4-carboxamide]",< 100
5,"COc1cccc(F)c1-c1nccc(C(=O)Nc2cc(F)c(CO)cc2N2C[C@@H]3C[C@H]2CN3)n1 [Example 17, N-(2-((1S,4S)-2,5-Diazabicyclo[2.2.1]heptan-2-yl)-5-fluoro-4-(hydroxymethyl)phenyl)-2-(2-fluoro-6-methoxyphenyl)pyrimidine-4-carboxamide]",< 100
6,"COc1cccc(F)c1-c1nccc(C(=O)Nc2cc(F)ccc2N2CCNC[C@@H]2CO)n1 [Example 11, (R)-N-(5-Fluoro-2-(2-(hydroxymethyl)piperazin-1-yl)phenyl)-2-(2-fluoro-6-methoxyphenyl)pyrimidine-4-carboxamide]",< 100
7,"CCCNC(=O)N1C[C@H]2C[C@@H]1CN2c1ccc(F)cc1NC(=O)c1ccnc(-c2c(F)cccc2OC)n1 [Example 34, (1R,4R)-5-(4-Fluoro-2-(2-(2-fluoro-6-methoxyphenyl)pyrimidine-4-carboxamido)phenyl)-N-propyl-2,5-diazabicyclo[2.2.1]heptane-2-carboxamide]",< 100
8,COc1cccc(F)c1-c1nccc(C(=O)Nc2cc(F)ccc2N2CCNC[C@H]2C)n1 [Example 10],< 100
9,"COc1cccc(F)c1-c1nccc(C(=O)Nc2cc(F)c(CN3CCOCC3)cc2N2C[C@@H]3C[C@H]2CN3)n1 [Example 30, N-(2-((1S,4S)-2,5-Diazabicyclo[2.2.1]heptan-2-yl)-5-fluoro-4-(morpholinomethyl)phenyl)-2-(2-fluoro-6-methoxyphenyl)pyrimidine-4-carboxamide]",< 100
10,"COc1cccc(F)c1-c1nccc(C(=O)Nc2cc(F)cc(Br)c2N2C[C@H]3C[C@@H]2CN3)n1 [Example 13, N-(2-((1R,4R)-2,5-Diazabicyclo[2.2.1]heptan-2-yl)-3-bromo-5-fluorophenyl)-2-(2-fluoro-6-methoxyphenyl)pyrimidine-4-carboxamide]",< 100

# Now from value to compound:
row,Ki [nM],SMILES
1,< 100,"COc1cccc(F)c1-c1nccc(C(=O)Nc2ccc(-c3cnccc3C#N)cc2N2C[C@@H](N)C[C@H]2C2(O)CC2)n1 [Example 53, N-(2-((2S,4S)-4-Amino-2-(1-hydroxycyclopropyl)pyrrolidin-1-yl)-4-(4-cyanopyridin-3-yl)phenyl)-2-(2-fluoro-6-methoxyphenyl)pyrimidine-4-carboxamide]"
2,< 100,"COc1cccc(F)c1-c1nccc(C(=O)Nc2ccc(-c3ccncc3C#N)cc2N2C[C@@H](N)C[C@H]2CO)n1 [Example 41, N-(2-((2S,4S)-4-Amino-2-(hydroxymethyl)pyrrolidin-1-yl)-4-(3-cyanopyridin-4-yl)phenyl)-2-(2-fluoro-6-methoxyphenyl)pyrimidine-4-carboxamide]"
3,< 100,"CCOc1cccc(F)c1-c1nccc(C(=O)Nc2ccc(-c3cnccc3C#N)cc2N2C[C@@H](N)C[C@H]2CO)n1 [Example 98, N-(2-((2S,4S)-4-Amino-2-(hydroxymethyl)pyrrolidin-1-yl)-4-(4-cyanopyridin-3-yl)phenyl)-2-(2-ethoxy-6-fluorophenyl)pyrimidine-4-carboxamide]"
4,< 100,"N#CC1(c2ccc(NC(=O)c3ccnc(-c4c(F)cccc4F)n3)c(N3C[C@@H](N)C[C@H]3CO)c2)CC1 [Example 94, N-(2-((2S,4S)-4-Amino-2-(hydroxymethyl)pyrrolidin-1-yl)-4-(1-cyanocyclopropyl)phenyl)-2-(2,6-difluorophenyl)pyrimidine-4-carboxamide]"
5,< 100,"COc1cccc(F)c1-c1nccc(C(=O)Nc2ccc(-c3cnccc3C#N)cc2N2CCO[C@H](CO)C2)n1 [Example 100, (S)-N-(4-(4-Cyanopyridin-3-yl)-2-(2-(hydroxymethyl)morpholino)phenyl)-2-(2-fluoro-6-methoxyphenyl)pyrimidine-4-carboxamide]"
6,< 100,"COc1cccc(F)c1-c1nccc(C(=O)Nc2ccc(-c3cnccc3C#N)cc2N2C[C@@H](N)C[C@H]2C(C)(C)O)n1 [Example 54, N-(2-((2S,4S)-4-Amino-2-(2-hydroxypropan-2-yl)pyrrolidin-1-yl)-4-(4-cyanopyridin-3-yl)phenyl)-2-(2-fluoro-6-methoxyphenyl)pyrimidine-4-carboxamide]"
7,< 100,"COc1cccc(F)c1-c1nccc(C(=O)Nc2ccc(-c3cnccc3C#N)cc2N2CC[C@@H]2CN(C)C)n1 [Example 107, (R)-N-(4-(4-Cyanopyridin-3-yl)-2-(2-((dimethylamino)methyl)azetidin-1-yl)phenyl)-2-(2-fluoro-6-methoxyphenyl)pyrimidine-4-carboxamide]"
8,< 100,"[2H]C([2H])([2H])Oc1ccc(F)c(F)c1-c1nccc(C(=O)Nc2ccc(-c3cnccc3C#N)cc2N2C[C@@H](N)C[C@H]2CO)n1 [Example 76, N-(2-((2S,4S)-4-Amino-2-(hydroxymethyl)pyrrolidin-1-yl)-4-(4-cyanopyridin-3-yl)phenyl)-2-(2,3-difluoro-6-(methoxy-d3)phenyl)pyrimidine-4-carboxamide]"
9,< 100,"COc1c(F)ccc(F)c1-c1nccc(C(=O)Nc2ccc(-c3cnccc3C#N)cc2N2C[C@@H](N)C[C@H]2CO)n1 [Example 73, N-(2-((2S,4S)-4-Amino-2-(hydroxymethyl)pyrrolidin-1-yl)-4-(4-cyanopyridin-3-yl)phenyl)-2-(3,6-difluoro-2-methoxyphenyl)pyrimidine-4-carboxamide]"
10,< 100,"COc1ccc(F)c(F)c1-c1nccc(C(=O)Nc2ccc(-c3cnccc3C#N)cc2N2C[C@@H](N)C[C@H]2CO)n1 [Example 72, N-(2-((2S,4S)-4-Amino-2-(hydroxymethyl)pyrrolidin-1-yl)-4-(4-cyanopyridin-3-yl)phenyl)-2-(2,3-difluoro-6-methoxyphenyl)pyrimidine-4-carboxamide]"
11,< 100,"[2H]C([2H])([2H])Oc1ccc(C)c(F)c1-c1nccc(C(=O)Nc2cc(F)ccc2N2C[C@@H](N)C[C@H]2CO)n1 [Example 69, N-(2-((2S,4S)-4-Amino-2-(hydroxymethyl)pyrrolidin-1-yl)-5-fluorophenyl)-2-(2-fluoro-6-(methoxy-d3)-3-methylphenyl)pyrimidine-4-carboxamide]"
12,< 100,"COc1cccc(F)c1-c1nccc(C(=O)Nc2ccc(-c3cnccc3C#N)cc2N2CC[C@H](N)C[C@@H]2C)n1 [Example 58, N-(2-((2S,4S)-4-Amino-2-methylpiperidin-1-yl)-4-(4-cyanopyridin-3-yl)phenyl)-2-(2-fluoro-6-methoxyphenyl)pyrimidine-4-carboxamide]"
